Bridge positions count the residues as written; N and C are the ends. Square brackets hold non-standard residues; d marks the D form. Peptide text beside a SMILES is read from it. S5 = C=CCCC[C@](C)(N)C(=O)O; Nle = CCCC[C@H](N)C(=O)O
Legend:
[1] = test system: E. coli; format: cell-based, Escherichia coli
Method: (§1) Antimicrobial Activity Assay:
(§2) The following microbroth dilution protocol was adapted to determine the minimum inhibitory concentration (MIC) of each peptide. First, Mueller-Hinton broth (MHB) was passed through an anion exchange column to remove polyanionic species and generate refined MHB. […] Briefly, bacterial cells was grown overnight in refined MHB at 37° C. and then diluted and allowed to grow again for several hours. Serial dilutions of peptide stocks in water (10 μl) were prepared using clear round-bottom polypropylene 96-well plates. Then 90 μl of bacteria in refined MHB was added to give a final inoculum of 5×10^5 CFU/ml. The plates were then covered with porous tape to reduce evaporation, and incubated for 20-24 hours at 37° C. The MIC is the minimum peptide concentration at which no visible growth was observed.

[2] = test system: B. cereus; format: cell-based, Bacillus cereus
Method: as §1, §2

[3] = test system: S. aureus; format: cell-based, Staphylococcus aureus
Method: as §1, §2

[4] = test system: P. aeruginosa; format: cell-based, Pseudomonas aeruginosa
Method: as §1, §2

CCCC[C@H](NC(=O)[C@@H](NC(=O)[C@H](CCC(=O)O)NC(=O)CNC(=O)[C@@H](NC(=O)[C@H](Cc1ccccc1)NC(=O)[C@H](C)NC(=O)[C@H](CCCCN)NC(=O)CNC(=O)[C@H](Cc1ccccc1)NC(=O)[C@H](CCCCN)NC(=O)[C@H](CCCCN)NC(=O)[C@H](C)NC(=O)[C@H](CO)NC(=O)[C@H](Cc1c[nH]cn1)NC(=O)[C@]1(C)CCCC=CCCC[C@](C)(NC(=O)CN)C(=O)NCC(=O)N[C@@H](CCCCN)C(=O)N[C@@H](Cc2ccccc2)C(=O)N1)C(C)C)[C@@H](C)CC)C(=O)N[C@@H](CC(N)=O)C(=O)N[C@@H](CO)C(N)=O [Mag(i + 4)1, GXGKFXHSAKKFGKAFVGEIBNS] (H-G[S5]GKF[S5]HSAKKFGKAFVGEI[Nle]NS-NH2; staple 2-6)
MIC E. coli [1]: 3.1 µg/mL
MIC B. cereus [2]: 25 µg/mL
MIC S. aureus [3]: >50 µg/mL
MIC P. aeruginosa [4]: 12.5 µg/mL

CCCC[C@H](NC(=O)[C@]1(C)CCCC=CCCC[C@](C)(NC(=O)[C@H](C)NC(=O)[C@H](CCCCN)NC(=O)CNC(=O)[C@H](Cc2ccccc2)NC(=O)[C@H](CCCCN)NC(=O)[C@H](CCCCN)NC(=O)[C@H](CCCCN)NC(=O)[C@H](CO)NC(=O)[C@]2(C)CCCC=CCCC[C@](C)(NC(=O)[C@@H](NC(=O)CN)[C@@H](C)CC)C(=O)N[C@@H](CCCCN)C(=O)N[C@@H](Cc3ccccc3)C(=O)N[C@@H](CC(C)C)C(=O)N2)C(=O)N[C@@H](C(C)C)C(=O)NCC(=O)N[C@@H](CCC(=O)O)C(=O)N1)C(=O)N[C@@H](CC(N)=O)C(=O)N[C@@H](CO)C(N)=O [Mag(i + 4)2, 15(A9K), GIXKFLXSKKKFGKAXVGEXBNS] (H-GI[S5]KFL[S5]SKKKFGKA[S5]VGE[S5][Nle]NS-NH2; staple 3-7, 16-20)
MIC E. coli [1]: 1.6 µg/mL
MIC B. cereus [2]: 3.1 µg/mL
MIC S. aureus [3]: 3.1 µg/mL
MIC P. aeruginosa [4]: 3.1 µg/mL

CCCC[C@H](NC(=O)[C@@H](NC(=O)[C@H](CCC(=O)O)NC(=O)CNC(=O)[C@@H](NC(=O)[C@H](Cc1ccccc1)NC(=O)[C@H](C)NC(=O)[C@H](CCCCN)NC(=O)CNC(=O)[C@H](Cc1ccccc1)NC(=O)[C@]1(C)CCCC=CCCC[C@](C)(NC(=O)[C@H](CC(C)C)NC(=O)[C@H](Cc2ccccc2)NC(=O)[C@H](CCCCN)NC(=O)CNC(=O)[C@@H](NC(=O)CN)[C@@H](C)CC)C(=O)N[C@@H](CO)C(=O)N[C@@H](C)C(=O)N[C@@H](CCCCN)C(=O)N1)C(C)C)[C@@H](C)CC)C(=O)N[C@@H](CC(N)=O)C(=O)N[C@@H](CO)C(N)=O [Mag(i + 4)6, GIGKFLXSAKXFGKAFVGEIBNS] (H-GIGKFL[S5]SAK[S5]FGKAFVGEI[Nle]NS-NH2; staple 7-11)
MIC E. coli [1]: 6.2 µg/mL
MIC B. cereus [2]: 12.5 µg/mL
MIC S. aureus [3]: 25 µg/mL
MIC P. aeruginosa [4]: 25 µg/mL

Reference: patent US20200231638A1, “STABILIZED ANTI-MICROBIAL PEPTIDES” (priority 2015, published 2020)
